Measurements taken from US11376249B2 (priority 2017, dated 2022).

Key:
[1] = test system: GluR1 phosphorylation at Ser845; assay: CNS phosphoprotein profile, GluR1; type: in vivo, mice; conditions: 3 mg/kg, nucleus accumbens
Description: (§1) A comprehensive molecular phosphorylation study is also carried out to examine the central nervous system (CNS) profile of the compounds of Example 1 and Example 3. The extent of protein phosphorylation for selected key central nervous system proteins is measured in mice nucleus accumbens.
(§2) Mice were killed 30 minutes to 2 hours post-injection by focused microwave cranial irradiation, which preserves brain phosphoprotein as it exists at the time of death. The nucleus accumbens was then dissected from each mouse brain, sliced and frozen in liquid nitrogen. Samples were further prepared for phosphoprotein analysis via SDS-PAGE electrophoresis followed by phosphoprotein-specific immunoblotting, as described in Zhu H, et al., Brain Res. 2010 Jun. 25; 1342:11-23. Phosphorylation at each site was quantified, normalized to total levels of the protein (non-phosphorylated), and expressed as percent of the level of phosphorylation in vehicle-treated control mice.

[2] = target: D2 (Homo sapiens, UniProt P14416); assay: biochemical; conditions: read-out: inhibition D2
Chain of D2 (P14416 whole entry): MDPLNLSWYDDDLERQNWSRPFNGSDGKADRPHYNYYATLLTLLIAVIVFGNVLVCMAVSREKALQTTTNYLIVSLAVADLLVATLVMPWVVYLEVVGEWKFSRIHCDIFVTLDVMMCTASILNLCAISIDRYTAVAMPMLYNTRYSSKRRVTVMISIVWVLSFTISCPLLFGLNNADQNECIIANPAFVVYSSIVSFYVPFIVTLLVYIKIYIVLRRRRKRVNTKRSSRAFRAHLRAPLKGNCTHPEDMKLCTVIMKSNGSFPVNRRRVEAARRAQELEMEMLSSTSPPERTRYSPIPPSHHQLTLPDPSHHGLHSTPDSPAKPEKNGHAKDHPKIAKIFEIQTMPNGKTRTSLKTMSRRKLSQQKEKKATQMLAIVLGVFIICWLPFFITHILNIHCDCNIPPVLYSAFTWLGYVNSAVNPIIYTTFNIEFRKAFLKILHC

[3] = test system: NR2B phosphorylation at Tyr1472; assay: CNS phosphoprotein profile, NR2B; type: in vivo, mice; conditions: 3 mg/kg, 30-60 minutes, nucleus accumbens
Description: as §1, §2

[4] = test system: ERK2 phosphorylation at Thr183 and Tyr185; assay: CNS phosphoprotein profile, ERK2; type: in vivo, mice; conditions: 3 mg/kg, nucleus accumbens
Description: as §1, §2

[5] = test system: 5-HT2 receptor; design: species or system mice; conditions: mouse, in vivo, po
[6] = test system: tyrosine hydroxylase phosphorylation at Ser40; assay: CNS phosphoprotein profile, TH; type: in vivo, mice; conditions: 3 mg/kg, 30 or 60 minutes, nucleus accumbens
Description: as §1, §2

[7] = target: D1 (Homo sapiens, UniProt P21728); assay: biochemical; conditions: read-out: inhibition D1
Chain of D1 (P21728 whole entry): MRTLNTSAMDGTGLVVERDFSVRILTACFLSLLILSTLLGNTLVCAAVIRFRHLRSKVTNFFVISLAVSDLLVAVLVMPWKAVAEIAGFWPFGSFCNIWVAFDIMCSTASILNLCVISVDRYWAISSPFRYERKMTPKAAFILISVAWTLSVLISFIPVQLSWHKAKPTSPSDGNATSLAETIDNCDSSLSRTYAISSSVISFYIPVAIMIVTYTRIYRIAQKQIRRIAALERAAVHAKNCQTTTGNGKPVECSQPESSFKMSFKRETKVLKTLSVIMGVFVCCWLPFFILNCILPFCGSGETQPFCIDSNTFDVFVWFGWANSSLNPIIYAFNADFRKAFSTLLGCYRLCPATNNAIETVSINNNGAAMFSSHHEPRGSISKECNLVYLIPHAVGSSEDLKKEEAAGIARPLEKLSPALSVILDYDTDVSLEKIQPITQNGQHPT

[8] = Rat tolerance/dependence study (28 day)
[9] = target: Mu opiate receptor (Homo sapiens, UniProt P35372); type: binding
Chain of Mu opiate receptor (P35372 whole entry): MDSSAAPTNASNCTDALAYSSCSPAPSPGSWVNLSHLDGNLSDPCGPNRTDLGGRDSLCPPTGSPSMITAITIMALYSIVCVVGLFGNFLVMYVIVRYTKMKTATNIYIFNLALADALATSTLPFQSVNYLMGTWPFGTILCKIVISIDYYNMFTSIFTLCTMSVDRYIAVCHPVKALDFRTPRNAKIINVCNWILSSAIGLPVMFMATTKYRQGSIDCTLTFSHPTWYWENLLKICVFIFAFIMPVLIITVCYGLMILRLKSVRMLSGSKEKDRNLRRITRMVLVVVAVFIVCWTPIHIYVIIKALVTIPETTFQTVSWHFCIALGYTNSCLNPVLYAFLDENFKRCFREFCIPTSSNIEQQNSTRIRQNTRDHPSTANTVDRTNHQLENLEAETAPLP

[10] = Mouse marble-burying study (OCD model); type: in vivo, mice; conditions: 20 mg/kg intraperitoneal just prior to test
Text: The marble burying test is used to measure repetitive and anxiety-related behavior in rodents. It is based on the observation that rats and mice will bury either harmful or harmless objects in their bedding, and it has been used as an animal model to measure the effect of pharmacological interventions in treatment of repetitive behavior disorders, such as OCD.
MPEP is a selective mGluR5 glutamate receptor antagonist. […] Mice in groups (1) are orally administered the vehicle, and mice in group (4) are given an intraperitoneal injection of MPEP just prior to the start of the test.
The test is conducted in rectangular cages with 4-5 cm of wood chip bedding in a room with the window shades lowered and the door closed to minimize distractions. Fifteen clean marbles are evenly spaced on top of the bedding in three rows of five marbles. One mouse is placed in each cage. The mouse and cage is left undisturbed for 30 minutes. At the end of the test, the mouse is removed and the number of marbles buried to at least ⅔ of their depth is counted.

O=C1CN2c3c(cccc3[C@@H]3CN(CCCC(=O)c4ccc(F)cc4)CC[C@@H]32)N1 [Example 1, 4-((6bR,10aS)-2-oxo-2,3,6b,9,10,10a-hexahydro-1H,7H-pyrido[3′,4′:4,5]pyrrolo[1,2,3-de]quinoxalin-8-yl)-1-(4-fluoro-phenyl)-butan-1-one]
GluR1 phosphorylation at Ser845 [1]: slight increase
inhibition at […] [2]: 47%
effect on NR2B phosphorylation at Tyr1472 [3]: neither the compound of Example 1 nor of Example 3 has a significant effect
ERK2 phosphorylation at Thr183 and Tyr185 [4]: slight decrease
EC50 for reducing DOI-induced head twitches [5]: 0.23 mg/kg
effect on tyrosine hydroxylase phosphorylation at Ser40 [6]: neither the compound of Example 1 nor of Example 3 has a significant effect

O=C1CN2c3c(cccc3[C@@H]3CN(CCCC(O)c4ccc(F)cc4)CC[C@@H]32)N1 (stereo partly drawn) [Example 2, 4-((6bR,10aS)-2-oxo-2,3,6b,9,10,10a-hexahydro-1H,7H-pyrido[3′,4′:4,5]pyrrolo[1,2,3-de]quinoxalin-8-yl)-1-(4-fluoro-phenyl)-butan-1-ol]
inhibition at […] [2]: 11%
inhibition at 0.1 µM [7]: 13%

O=C1CN2c3c(cccc3[C@@H]3CN(CCCOc4ccc(F)cc4)CC[C@@H]32)N1 [Example 3, (6bR,10aS)-8-(3-(4-fluorophenoxy)propyl)-6b,7,8,9,10,10a-hexahydro-1H-pyrido[3′,4′:4,5]pyrrolo[1,2,3-de]quinoxalin-2(3H)-one]
EC50 for reducing DOI-induced head twitches [5]: 0.44 mg/kg
predominant behavioral and physical effects ([8]; 0.3 mg/kg, dosing phase): hunched posture, Straub tail and piloerection
tolerance ([8]; 0.3 and 3 mg/kg s.c., 28 days): does not produce tolerance
effect on body weight, food and water intake or body temperature ([8]; 0.3 and 3 mg/kg s.c., on-dose or withdrawal phase): no significant effect

CN1CCN2c3c(cccc31)[C@@H]1CN(CCCC(=O)c3ccc(F)cc3)CC[C@@H]12 [Formula A, reference compound]
activity at the Mu opiate receptor [9]: not active

CN1CCN2c3c(cccc31)[C@@H]1CN(CCCC(O)c3ccc(F)cc3)CC[C@@H]12 (stereo partly shown) [Formula B, reference compound]
EC50 for reducing DOI-induced head twitches [5]: 0.31 mg/kg

Cc1cccc(C#Cc2ccccc2)n1 [MPEP, 2-methyl-6-(phenylethynyl)pyridine]
Marbles Buried [10]: 0.2

CN1CC[C@]23c4c5ccc(O)c4O[C@H]2[C@@H](O)C=C[C@H]3[C@H]1C5 [Morphine, reference compound]
tolerance and dependence ([8]; 30 mg/kg orally twice per day): clear signs of tolerance and dependence
